From publication PMC8991007, “Benzylic Dehydroxylation of Echinocandin Antifungal Drugs Restores Efficacy against Resistance Conferred by Mutated Glucan Synthase” (Journal of the American Chemical Society, 2022)
In brackets after ≈: the same amount, converted by molar mass. *1 amine or outer side, *2 acyl side, *3 side chain or, on linkers, in order; H or OH if unused. Where a SMILES comes first, the peptide text is derived from it. Bridges are numbered along the chain shown (N, C = ends). [ ]: non-standard residue; d: D form. The star is where a group is joined. hTyr(3S-OH,4S-OH,3'-OSO3H) = N[C@H](C(=O)O)[C@H](O)[C@@H](O)c1ccc(O)c(OS(=O)(=O)O)c1; Orn(4R-OH,5R-OH) = O=C([C@H](C[C@@H](O)[C@@H](O)N[*:3])N[*:1])[*:2]; Pro(3S-OH,4S-Me) = C[C@H]1CN[C@H](C(=O)O)[C@H]1O; X1 = CCCCCOc1ccc(-c2cc(-c3ccc(C(=O)*)cc3)no2)cc1; Gln(3R-OH) = NC(=O)C[C@@H](O)[C@H](N)C(=O)O; Hyp = O=C(O)[C@@H]1C[C@@H](O)CN1

Experiments:
C. albicans = test: Minimum inhibitory concentration broth double-dilution assay; type: cell-based, Candida albicans; conditions: 24 h, 30 °C
Description: (§1) The antifungal activities of compounds 1 and 2 were evaluated against a panel of 50 strains of C. albicans and C. glabrata (Table S4), including echinocandin-resistant strains that were constructed by introducing mutations within and near the defined hotspots in the FKS1 and/or FKS2 genes.[27] To evaluate antifungal activity, we determined MIC values. The MIC was defined as the lowest drug concentration that led to turbidity (measured at 600 nm) of less than or equal to 35% of that of the untreated culture. As controls, we tested CSF, MCF, ANF, and RZF.
(§2) All of the tested compounds were dissolved in anhydrous DMSO to a concentration of 5 mg/mL. Candida strains were streaked from a glycerol stock onto YPAD agar plates and grown for 24 h at 30 °C. Colonies were suspended in 1 mL of PBS and diluted to an O.D. of 0.01 at 600 nm with YPAD broth and added into flat-bottom 96-well microplates (Corning) containing a gradient of twofold dilutions per tested compound with concentrations ranging from 64 to 0.0009 μg/mL. Control wells with no drug and blank wells without yeast cells containing YPAD only were also prepared. […] Each concentration was tested in triplicate, and results were confirmed by at least two independent sets of experiments.

C. glabrata = test: as above; type: cell-based, Candida glabrata; conditions: 24 h, 30 °C
Description: as §1, §2

[1] = #2 C. albicans DPL1015 (DP-A15)
[2] = #3 C. albicans DPL1016 (DP-A15-10)

Row | Compound | MIC (C. albicans; #1 C. albicans Sc5314) | MIC (C. albicans; [1]) | MIC (C. albicans; [2]) | MIC (C. albicans; #4 C. albicans T-2068 (DP-C42)) | MIC (C. albicans; #5 C. albicans T-2069 (DP-85)) | MIC (C. albicans; #6 C. albicans (DP-89)) | MIC (C. albicans; #7 C. albicans T-2076 (DP-194)) | MIC (C. albicans; #8 C. albicans T-2077 (DP-205)) | MIC (C. glabrata; #9 C. glabrata EF1620) | MIC (C. glabrata; #10 C. glabrata TGL00277) | MIC (C. glabrata; #11 C. glabrata TGL00275) | MIC (C. glabrata; #12 C. glabrata CST78) | MIC (C. glabrata; #13 C. glabrata TGL00265) | MIC (C. glabrata; #14 C. glabrata TGL00264) | MIC (C. glabrata; #15 C. glabrata TGL00263) | MIC (C. glabrata; #16 C. glabrata TGL00065) | MIC (C. glabrata; #17 C. glabrata CST34) | MIC (C. glabrata; #18 C. glabrata TGL00258) | MIC (C. glabrata; #19 C. glabrata TGL00256) | MIC (C. glabrata; #20 C. glabrata TGL00107) | other results
1 | CC[C@H](C)C[C@H](C)CCCCCCCCC(=O)N[C@H]1C[C@@H](O)[C@@H](NCCN)NC(=O)[C@@H]2[C@@H](O)CCN2C(=O)[C@H]([C@H](O)CCN)NC(=O)[C@H]([C@H](O)[C@@H](O)c2ccc(O)cc2)NC(=O)[C@@H]2C[C@@H](O)CN2C(=O)[C@H]([C@@H](C)O)NC1=O [CSF, caspofungin] | 0.015 µg/mL (≈ 0.0137 µM) | 1 µg/mL (≈ 0.915 µM) | > 64 µg/mL | 32 µg/mL (≈ 29.3 µM) | 16 µg/mL (≈ 14.6 µM) | > 64 µg/mL | 1 µg/mL (≈ 0.915 µM) | 16 µg/mL (≈ 14.6 µM) | 0.031 µg/mL (≈ 0.0284 µM) | > 64 µg/mL | 32 µg/mL (≈ 29.3 µM) | 0.015 µg/mL (≈ 0.0137 µM) | > 64 µg/mL | 4 µg/mL (≈ 3.66 µM) | 64 µg/mL (≈ 58.5 µM) | > 64 µg/mL | 0.015 µg/mL (≈ 0.0137 µM) | > 64 µg/mL | 16 µg/mL (≈ 14.6 µM) | > 64 µg/mL | MIC (C. glabrata; #21 C. glabrata TGL00056): > 64 µg/mL; MIC (C. glabrata; #22 C. glabrata M12): 0.015 µg/mL (≈ 0.0137 µM); MIC (C. glabrata; #23 C. glabrata TGL00270): > 64 µg/mL; MIC (C. glabrata; #24 C. glabrata TGL00269): 16 µg/mL (≈ 14.6 µM); MIC (C. glabrata; #25 C. glabrata TGL00268): > 64 µg/mL; MIC (C. glabrata; #26 C. glabrata TGL00268): > 64 µg/mL; MIC (C. glabrata; #27 C. glabrata EB0911): 0.031 µg/mL (≈ 0.0284 µM); MIC (C. glabrata; #28 C. glabrata TGL00261): > 64 µg/mL; MIC (C. glabrata; #29 C. glabrata TGL00109): 64 µg/mL (≈ 58.5 µM); MIC (C. glabrata; #30 C. glabrata TGL00259): > 64 µg/mL
2 | CCCCCOc1ccc(-c2cc(-c3ccc(C(=O)N[C@H]4C[C@@H](O)[C@@H](O)NC(=O)[C@@H]5[C@@H](O)[C@@H](C)CN5C(=O)[C@H]([C@H](O)CC(N)=O)NC(=O)[C@H]([C@H](O)[C@@H](O)c5ccc(O)c(OS(=O)(=O)O)c5)NC(=O)[C@@H]5C[C@@H](O)CN5C(=O)[C@H]([C@@H](C)O)NC4=O)cc3)no2)cc1 [MCF, micafungin] (X1-[Orn(4R-OH,5R-OH)]T[Hyp][hTyr(3S-OH,4S-OH,3'-OSO3H)][Gln(3R-OH)][Pro(3S-OH,4S-Me)]; lactam 1-C) | 0.031 µg/mL (≈ 0.0244 µM) | 1 µg/mL (≈ 0.787 µM) | 16 µg/mL (≈ 12.6 µM) | 4 µg/mL (≈ 3.15 µM) | 2 µg/mL (≈ 1.57 µM) | 4 µg/mL (≈ 3.15 µM) | 1 µg/mL (≈ 0.787 µM) | 2 µg/mL (≈ 1.57 µM) | 0.015 µg/mL (≈ 0.0118 µM) | 8 µg/mL (≈ 6.3 µM) | 2 µg/mL (≈ 1.57 µM) | 0.004 µg/mL (≈ 0.00315 µM) | 1 µg/mL (≈ 0.787 µM) | > 64 µg/mL | 0.125 µg/mL (≈ 0.0984 µM) | 32 µg/mL (≈ 25.2 µM) | 0.002 µg/mL (≈ 0.00157 µM) | > 64 µg/mL | 0.125 µg/mL (≈ 0.0984 µM) | > 64 µg/mL | MIC (C. glabrata; #21 C. glabrata TGL00056): > 64 µg/mL; MIC (C. glabrata; #22 C. glabrata M12): 0.002 µg/mL (≈ 0.00157 µM); MIC (C. glabrata; #23 C. glabrata TGL00270): 16 µg/mL (≈ 12.6 µM); MIC (C. glabrata; #24 C. glabrata TGL00269): 0.125 µg/mL (≈ 0.0984 µM); MIC (C. glabrata; #25 C. glabrata TGL00268): > 64 µg/mL; MIC (C. glabrata; #26 C. glabrata TGL00268): > 64 µg/mL; MIC (C. glabrata; #27 C. glabrata EB0911): 0.008 µg/mL (≈ 0.0063 µM); MIC (C. glabrata; #28 C. glabrata TGL00261): 4 µg/mL (≈ 3.15 µM); MIC (C. glabrata; #29 C. glabrata TGL00109): > 64 µg/mL; MIC (C. glabrata; #30 C. glabrata TGL00259): 32 µg/mL (≈ 25.2 µM)
